In US10954214B2 (Janssen Pharmaceutica NV, priority 2016, dated 2021):

Assays:
[1] = target: full-length MALT1 protein (Strep-MALT1(1-824)-His) (Homo sapiens (Human), UniProt Q9UDY8); test: MALT1 Biochemical Protease Assay (Ac-LRSR-AMC substrate); details: 10 nM FL MALT1, 200 μM Ac-LRSR-AMC, 4 h at RT; read-out: MALT1_Biochemical activity (Ac-LRSR-amc) IC50
In short: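 Full-length MALT1 pre-incubated with compounds (30 μM to 0.5 nM, 11 threefold steps) for 50 min at RT. After Ac-LRSR-AMC was added, the reaction ran 4 h at RT and AMC fluorescence was read. IC50 and Hill slope from curve fitting against no-enzyme and no-compound controls.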

[2] = tested on: IL10 secretion by TMD8 ABC-DLBCL cells; test: Human IL10 Mesoscale assay (TMD-8); assay type: cell-based; details: Homo sapiens, TMD8; TMD-8 cells, 24 h
In short: (§1)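 Read-out: MSD electrochemiluminescence of IL6/IL10 in supernatants. Cells (100,000/well, no beta-mercaptoethanol) were exposed to compounds at 15 μM down to 58.6 nM, 1:2 dilutions, for 24 h at 37° C, 5% CO2. Normalised between DMSO (high) and RN486 (low) controls.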

OCI-Ly3 cells = test: 4-day proliferation assay, OCI-Ly3; assay type: cell-based, human; details: Homo sapiens, 96 h, 4 days incubation, CellTiterGLO, read-out: Anti-proliferation: OCI-LY-3 IC50
In short: (§2)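 TMD8 and OCI-Ly3 cells were seeded at 10,000 per well and grown 4 days at 37° C, 5% CO2 without beta-mercaptoethanol. Viability was read by CellTiter-Glo luminescence. IC50 and Hill slope were fitted relative to the low control median.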

TMD8 cells = test: 4-day proliferation assay, TMD8; assay type: cell-based; details: Homo sapiens, 96 h, 4 days incubation, CellTiterGLO, read-out: Anti-proliferation: TMD-8 IC50
In short: as §2

[3] = tested on: IL6 secretion by TMD8 ABC-DLBCL cells; test: Human IL6 Mesoscale assay (TMD-8); assay type: cell-based; details: Homo sapiens, TMD8; TMD-8 cells, 24 h
In short: as §1

Chain of full-length MALT1 protein (Strep-MALT1(1-824)-His) (Q9UDY8 whole entry): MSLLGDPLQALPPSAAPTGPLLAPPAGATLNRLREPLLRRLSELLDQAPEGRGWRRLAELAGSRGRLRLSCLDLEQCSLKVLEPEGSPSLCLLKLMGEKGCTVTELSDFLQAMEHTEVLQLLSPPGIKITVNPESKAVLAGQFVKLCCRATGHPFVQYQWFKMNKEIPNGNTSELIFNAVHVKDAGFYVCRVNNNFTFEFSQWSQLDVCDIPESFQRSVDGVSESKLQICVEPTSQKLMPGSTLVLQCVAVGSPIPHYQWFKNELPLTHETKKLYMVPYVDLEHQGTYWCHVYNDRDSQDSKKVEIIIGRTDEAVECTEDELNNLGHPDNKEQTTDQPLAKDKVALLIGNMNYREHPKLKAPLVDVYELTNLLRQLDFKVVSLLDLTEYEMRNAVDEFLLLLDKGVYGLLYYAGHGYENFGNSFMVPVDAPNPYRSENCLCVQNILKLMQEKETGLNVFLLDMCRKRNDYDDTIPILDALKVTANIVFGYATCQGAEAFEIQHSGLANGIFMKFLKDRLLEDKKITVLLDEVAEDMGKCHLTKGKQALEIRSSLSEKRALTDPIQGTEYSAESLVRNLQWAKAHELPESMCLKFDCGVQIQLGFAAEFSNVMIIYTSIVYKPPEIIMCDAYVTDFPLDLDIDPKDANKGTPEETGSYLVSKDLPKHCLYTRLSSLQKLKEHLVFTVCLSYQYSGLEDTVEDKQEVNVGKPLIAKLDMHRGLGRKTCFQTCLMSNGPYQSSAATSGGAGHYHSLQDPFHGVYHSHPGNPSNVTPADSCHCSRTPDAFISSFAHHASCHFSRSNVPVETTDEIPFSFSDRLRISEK

IC50 [1]	IC50 [2]	IC50 (OCI-Ly3 cells)	IC50 [3]	Structure (SMILES)	IC50 (TMD8 cells)
7 nM	31 nM	505 nM	45 nM	NC(=O)c1ncc(-n2ncc(C(=O)Nc3cnc(-n4nccn4)c(Cl)c3)c2C(F)(F)F)c2ccsc12 [Cpd 391, 4-(4-((5-chloro-6-(2H-1,2,3-triazol-2-yl)pyridin-3-yl)carbamoyl)-5-(trifluoromethyl)-1H-pyrazol-1-yl)thieno[2,3-c]pyridine-7-carboxamide]	676 nM
41 nM	95 nM	740 nM	74 nM	Cn1ccc(-c2ncc(NC(=O)c3cnn(-c4cccc5ncccc45)c3C(F)(F)F)cc2C#N)n1 [Cpd 89, N-(5-cyano-6-(1-methyl-1H-pyrazol-3-yl)pyridin-3-yl)-1-(quinolin-5-yl)-5-(trifluoromethyl)-1H-pyrazole-4-carboxamide]	> 20000 nM
32 nM	1000 nM	585 nM	4270 nM	O=C(Nc1cnc(-n2nccn2)c(Cl)c1)c1cnn(-c2c[nH]c(=O)c3c(F)cccc23)c1C(F)(F)F [Cpd 184, N-(5-chloro-6-(2H-1,2,3-triazol-2-yl)pyridin-3-yl)-1-(8-fluoro-1-oxo-1,2-dihydroisoquinolin-4-yl)-5-(trifluoromethyl)-1H-pyrazole-4-carboxamide]	6030 nM
141 nM	324 nM	1700 nM	251 nM	O=C1COc2c(Cl)cc(NC(=O)c3cnn(-c4cncc5ccccc45)c3C(F)(F)F)cc2N1 [Cpd 87, N-(8-Chloro-3-oxo-3,4-dihydro-2H-benzo[b][1,4]oxazin-6-yl)-1-(isoquinolin-4-yl)-5-(trifluoromethyl)-1H-pyrazole-4-carboxamide]	~13800 nM
43 nM	85 nM	220 nM	81 nM	O=C(Nc1cnc(-n2nccn2)c(Cl)c1)c1cnn(-c2nccc3ccccc23)c1C(F)(F)F [Cpd 57, N-(5-chloro-6-(2H-1,2,3-triazol-2-yl)pyridin-3-yl)-1-(isoquinolin-1-yl)-5-(trifluoromethyl)-1H-pyrazole-4-carboxamide]	~8910 nM
19 nM	54 nM	273 nM	126 nM	N#Cc1cc(NC(=O)c2cnn(-c3cccc4ncccc34)c2C(F)(F)F)ccc1-n1nccn1 [Cpd 133, N-(3-cyano-4-(2H-1,2,3-triazol-2-yl)phenyl)-1-(quinolin-5-yl)-5-(trifluoromethyl)-1H-pyrazole-4-carboxamide]	3310 nM
60 nM	63 nM	430 nM	58 nM	O=C(Nc1cnc(-c2nnco2)c(Cl)c1)c1cnn(-c2cncc3ccccc23)c1C(F)(F)F [Cpd 69, N-(5-Chloro-6-(1,3,4-oxadiazol-2-yl)pyridin-3-yl)-1-(isoquinolin-4-yl)-5-(trifluoromethyl)-1H-pyrazole-4-carboxamide]	~16200 nM
759 nM	676 nM	7080 nM	1050 nM	CN1CCN(C(=O)c2ncc(NC(=O)c3cnn(-c4cncc5ccccc45)c3C(F)(F)F)cc2C#N)CC1 [Cpd 96, N-(5-cyano-6-(4-methylpiperazine-1-carbonyl)pyridin-3-yl)-1-(isoquinolin-4-yl)-5-(trifluoromethyl)-1H-pyrazole-4-carboxamide]	~15500 nM
28 nM	49 nM	482 nM	52 nM	NC(=O)c1cnn(-c2ncc(NC(=O)c3cnn(-c4cccc5ncccc45)c3C(F)(F)F)cc2Cl)n1 [Cpd 144, 2-(3-chloro-5-(1-(quinolin-5-yl)-5-(trifluoromethyl)-1H-pyrazole-4-carboxamido)pyridin-2-yl)-2H-1,2,3-triazole-4-carboxamide]	2570 nM
26 nM	17 nM	380 nM	107 nM	N#Cc1cc(NC(=O)c2cnn(-c3ncnc4sccc34)c2C(F)(F)F)cnc1-n1nccn1 [Cpd 142, N-(5-cyano-6-(2H-1,2,3-triazol-2-yl)pyridin-3-yl)-1-(thieno[2,3-d]pyrimidin-4-yl)-5-(trifluoromethyl)-1H-pyrazole-4-carboxamide]	832 nM
34 nM	43 nM	510 nM	32 nM	N#Cc1cc(NC(=O)c2cnn(-c3cccc4ncccc34)c2C(F)(F)F)cnc1-n1nccn1 [Cpd 83, N-(5-cyano-6-(2H-1,2,3-triazol-2-yl)pyridin-3-yl)-1-(quinolin-5-yl)-5-(trifluoromethyl)-1H-pyrazole-4-carboxamide]	~8320 nM
30 nM	85 nM	966 nM	200 nM	O=C(Nc1cnc(-n2nccn2)c(Cl)c1)c1cnn(-c2nccn3cccc23)c1C(F)(F)F [Cpd 147, N-(5-chloro-6-(2H-1,2,3-triazol-2-yl)pyridin-3-yl)-1-(pyrrolo[1,2-a]pyrazin-1-yl)-5-(trifluoromethyl)-1H-pyrazole-4-carboxamide]	11500 nM
25 nM	39 nM	505 nM	51 nM	O=C(Nc1cnc(-n2nccn2)c(Cl)c1)c1cnn(-c2nccn3nccc23)c1C(F)(F)F [Cpd 141, N-(5-chloro-6-(2H-1,2,3-triazol-2-yl)pyridin-3-yl)-1-(pyrazolo[1,5-a]pyrazin-4-yl)-5-(trifluoromethyl)-1H-pyrazole-4-carboxamide]	6030 nM
372 nM	1380 nM	2450 nM	1380 nM	COC(=O)c1cc(NC(=O)c2cnn(-c3cncc4ccccc34)c2C(F)(F)F)cc(Cl)n1 [Cpd 74, Methyl 6-chloro-4-(1-(isoquinolin-4-yl)-5-(trifluoromethyl)-1H-pyrazole-4-carboxamido)picolinate]	> 20000 nM
20 nM	15 nM	593 nM	21 nM	Cc1nc(-n2nccn2)c(C#N)cc1NC(=O)c1cnn(-c2cncc3c(F)cccc23)c1C(F)(F)F [Cpd 124, N-(5-cyano-2-methyl-6-(2H-1,2,3-triazol-2-yl)pyridin-3-yl)-1-(8-fluoroisoquinolin-4-yl)-5-(trifluoromethyl)-1H-pyrazole-4-carboxamide]	977 nM
724 nM	339 nM	1950 nM	417 nM	Cc1cc(NC(=O)c2cnn(-c3cncc4ccccc34)c2C(F)(F)F)cc(C(F)(F)F)n1 [Cpd 73, 1-(isoquinolin-4-yl)-N-(2-methyl-6-(trifluoromethyl)pyridin-4-yl)-5-(trifluoromethyl)-1H-pyrazole-4-carboxamide]	~11500 nM
22 nM	2340 nM	776 nM	2510 nM	N#Cc1cc(NC(=O)c2cnn(-c3cnc(N)c4ccccc34)c2C(F)(F)F)cnc1-n1nccn1 [Cpd 156, 1-(1-aminoisoquinolin-4-yl)-N-(5-cyano-6-(2H-1,2,3-triazol-2-yl)pyridin-3-yl)-5-(trifluoromethyl)-1H-pyrazole-4-carboxamide]	5250 nM
